Holding throughout (test): NCI anticancer screen, dose series, 48 h
For assay [1], the system named is SK-MEL-5 melanoma.
The subject of assay [2] is MCF7 breast.
Assay [3] has as its system DU-145 prostate.
Assay [4] deals with OVCAR-8 ovarian.
In assay [5] the test system is HCT-15 colon.
Assay [6] relates to EKVX NSCLC.
Assay [7] relates to NCI/ADR-RES ovarian.
The test system of assay [8] is A549 NSCLC.
For assay [9], the system named is SR leukemia.
For assay [10], the system named is RPMI-8226 leukemia.

Among the data in PubChem BioAssay (NCI) are TGI and GI50 values, retold here.

Where “and” joins values, the source holds several entries; their conditions need not be identical. Equal values may be shown once.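 In this assay, cells in 96-well plates receive the compound at five concentrations for 48 hours. Endpoints are linearly interpolated between the surrounding concentrations. The concentration for 50% growth inhibition is given as GI50. TGI denotes the concentration required for complete inhibition of growth.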

On to `CN1c2ccccc2S(=O)(=O)n2c(CCc3ccccc3)nnc21`, for which the TGI in [1], in assay [2], in [3], in [4], in [5] and in [6] was greater than 100 µM each time. Moreover, the TGI in [7] and in [8] was greater than 100 µM throughout.
`CCCCN(CC)c1ncnc2ccc(Br)cc12`: the GI50 in assay [1] is 16.1 µM; in assay [9], 8.42 µM; in assay [2] it was 24.6 µM; in [3], 19.4 µM; in assay [4], 14 µM; in assay [5], 22.1 µM. For the same molecule, the GI50 is 15.6 µM in [7], 3.71 µM in [10] and 13.9 µM in assay [8]. In addition, the TGI in [1] turned out to be 33.4 µM; in assay [9], 34.2 µM; in [2], 75.2 µM; in assay [3], 46.8 µM; in assay [4] it was 34.2 µM; in assay [5], 54.7 µM. Also, the TGI turned out to be 39.8 µM in [7], 22.1 µM in [10] and 45.6 µM in assay [8].
Regarding `COc1nc(C)cc2c(=O)n(-c3ccccc3)n(CC(O)CN3CCN(c4ccc(Cl)cc4)CC3)c(=O)c12` (stereo not given), the GI50 was 32.6 µM in [1]; greater than 50 µM in assay [9]; 46.1 µM in assay [2]; greater than 50 µM in assay [3]; greater than 50 µM in assay [5]; greater than 50 µM in [6]. Further, the GI50 in assay [7], in assay [10] and in assay [8] was greater than 50 µM in each case. Also, the TGI in assay [1], in assay [9], in assay [2], in assay [3], in assay [5] and in assay [6] was greater than 50 µM throughout. The TGI in assay [7], in assay [10] and in assay [8] was greater than 50 µM throughout.
For `Cc1cc(=O)oc2cc(OC(=O)N(CCCl)CCCl)ccc12`, the TGI in [1], in assay [9], in assay [2], in assay [3], in [4] and in assay [5] was greater than 100 µM in each case. The TGI in assay [6], in assay [7], in assay [10] and in assay [8] was greater than 100 µM in each case.
Turning to `COc1cc2ncnc3c2cc1OCCCCCN(C)Cc1ccc(Br)cc1N3`, the GI50 in assay [1] is 24 µM; in assay [9] it was 9.25 µM and 3.38 µM; in assay [2] it was 8.89 µM and 5.35 µM; in assay [3], 0.676 µM and 0.555 µM; in [4] it was 12 µM and 2.67 µM; in [5], 0.885 µM and 0.975 µM. Moreover, the GI50 in assay [6] is 0.24 µM; in [7], 3.34 µM and 2.04 µM; in [10] it was 7.39 µM and 3.92 µM; in assay [8] it was 6.23 µM and 1.9 µM. The TGI in assay [1], in assay [9], in assay [2], in [3], in assay [4] and in assay [5] was greater than 100 µM in each case. The TGI in assay [6] is greater than 10 µM; in [7], greater than 100 µM; in assay [10] it was greater than 100 µM; in assay [8], greater than 100 µM.
Regarding `CC1(C)C=[N+]([O-])C(C)(C)N1O`, the TGI in assay [9], in assay [2], in assay [3], in assay [4], in assay [5] and in assay [6] was greater than 10 µM throughout. Also, the TGI in assay [7], in assay [10] and in [8] was greater than 10 µM in each case.
As for `Oc1c(CN2CCCC2)cc(CSCc2ccccc2)c2cccnc12`, the GI50 is 0.35 µM in assay [1]; 0.392 µM in assay [9]; 0.475 µM in [2]; 1.28 µM in assay [3]; 0.462 µM in assay [4]; 0.0612 µM in assay [5]. Moreover, the GI50 in assay [6] is 1.99 µM; in assay [7] it was 0.0989 µM; in assay [10], 1.42 µM; in assay [8], 1.73 µM. Further, the TGI was 1.6 µM in [1]; 2.32 µM in assay [9]; 11.3 µM in [2]; 10.7 µM in [3]; 9.79 µM in [4]; 1.85 µM in assay [5]. Besides, the TGI in assay [6] came out at 11.9 µM; in assay [7], 0.807 µM; in assay [10], 6.81 µM; in assay [8], 10.6 µM.
For `CC[C@@]12C=CCN3CC[C@]4(c5cc(NC(=O)COc6cc(OCC(=O)Nc7cc8c(cc7OC)N(C)[C@H]7[C@@](O)(C(=O)OC)[C@H](OC(C)=O)[C@]9(CC)C=CCN%10CC[C@]87[C@@H]%109)cc7oc(-c8ccccc8)cc(=O)c67)c(OC)cc5N(C)[C@@H]4[C@](O)(C(=O)OC)[C@H]1OC(C)=O)[C@H]32`, the GI50 was 36.9 µM in assay [1]; 2.06 µM in [9]; 3.25 µM in assay [2]; 4.46 µM in assay [3]; 2.87 µM in assay [4]; 1.7 µM in [5]. Moreover, the GI50 in assay [6] is 3.28 µM; in assay [7], greater than 100 µM; in assay [10] it was 3.2 µM; in [8], 7.14 µM. For the same molecule, the TGI in [1] is greater than 100 µM; in assay [9], greater than 100 µM; in [2] it was 21.7 µM; in [3], greater than 100 µM; in assay [4], greater than 100 µM; in [5], 12.1 µM. Moreover, the TGI in assay [6], in assay [7], in assay [10] and in assay [8] was greater than 100 µM each time.
For `COc1ccc(NC(=O)n2nc(/C=C\c3ccc(O)c(OC)c3)cc2/C=C\c2ccc(O)c(OC)c2)cc1`, the GI50 in assay [1] was 3.67 µM; in assay [9] it was 1.52 µM; in assay [2], 3.03 µM; in assay [3], 3.99 µM; in assay [4], 5.32 µM; in assay [5] it was 2.98 µM. Besides, the GI50 in [6] was 6.62 µM; in assay [7], 4.28 µM; in assay [10], 3.38 µM; in assay [8], 5.5 µM. Further, the TGI in assay [1] is 16.1 µM; in assay [9], 12.8 µM; in assay [2], 17 µM; in assay [3] it was 24.6 µM; in assay [4], 59.9 µM; in assay [5] it was greater than 100 µM. The TGI in assay [6] is 83.7 µM; in [7], greater than 100 µM; in assay [10] it was 29.2 µM; in assay [8] it was 97.9 µM.
For the molecule `CC[C@H](Nc1nc(N)nc(C2CC2)c1C#N)c1nc2cccc(NCc3ccc(C(=O)NO)cc3)c2c(=O)n1-c1ccccc1`, the GI50 in assay [2] is 2.06 µM; in assay [3] it was 1.95 µM; in assay [5], 2.05 µM; in assay [6], 1.75 µM; in assay [7], 3.31 µM; in assay [10], 2.52 µM. Besides, the GI50 in assay [8] is 1.93 µM. Besides, the TGI is 8.28 µM in assay [2]; 4.56 µM in assay [3]; 6.96 µM in [5]; 3.73 µM in assay [6]; 15.6 µM in [7]; 9.03 µM in assay [10]. Also, in [8], the TGI was 4.52 µM.
For `CCn1c(=O)c2c3ccc(OC(C)=O)cc3[nH]c2c2ccc(OC(C)=O)cc21`, the TGI in assay [1] is greater than 100 µM; in assay [9], greater than 100 µM; in assay [2], greater than 100 µM; in [3] it was 49.1 µM; in assay [4] it was greater than 100 µM; in assay [5], greater than 100 µM. The TGI in assay [7] and in assay [8] was greater than 100 µM each time.
As for `CC(C)(C)n1cc(-c2ccnc(NCCCNS(=O)(=O)c3ccc(Br)cc3)c2)c(-c2cccc(O)c2)n1`, the GI50 was 1.52 µM in [1]; 1.88 µM in [2]; 2.1 µM in assay [3]; 2.43 µM in assay [4]; 1.48 µM in [5]; 1.95 µM in [6]. Further, the GI50 in assay [7] was 2.21 µM; in assay [8] it was 2.11 µM. In addition, the TGI in assay [1] was 2.87 µM; in assay [2], 3.98 µM; in assay [3], 4.23 µM; in assay [4], 6.88 µM; in assay [5], 3.17 µM; in [6], 4.58 µM. Moreover, the TGI in assay [7] is 5.03 µM; in assay [8], 5.39 µM.
`CCOC(=O)Cc1csc(N=Nc2c(O)[nH]c3ccccc23)n1`: the TGI in assay [1] is 69.9 µM; in [2] it was greater than 100 µM; in [3], greater than 100 µM; in assay [4], greater than 100 µM; in [5], greater than 100 µM; in assay [6], greater than 100 µM. For the same molecule, the TGI in assay [7], in [10] and in assay [8] was greater than 100 µM in each case.
On to `Cc1ccc(/C=C2/NC(=S)SC2=O)cc1`, for which the TGI was greater than 100 µM in assay [1]; greater than 100 µM in [2]; greater than 100 µM in assay [3]; greater than 100 µM in assay [4]; 85.6 µM in assay [5]; greater than 100 µM in assay [6]. In addition, the TGI in [7] and in assay [8] was greater than 100 µM each time.
Take `CC(=O)c1cccc(-c2cccc(-c3ccn(CCN4CCOCC4)n3)c2)c1`: the GI50 was 11.6 µM in [1]; greater than 20 µM in assay [9]; greater than 20 µM in [2]; greater than 20 µM in assay [3]; greater than 20 µM in assay [4]; greater than 20 µM in assay [5]. Besides, the GI50 in assay [7], in assay [10] and in assay [8] was greater than 20 µM each time. In addition, the TGI in assay [1], in [9], in assay [2], in assay [3], in assay [4] and in [5] was greater than 20 µM throughout. Besides, the TGI in assay [7], in assay [10] and in assay [8] was greater than 20 µM in each case.
Regarding `CC1(C)C(=O)C=CC2(C)C1CC(O)C1(C)C2CCC2(C)C(c3ccoc3)OC(=O)C3OC321` (stereo not given), the TGI in assay [1] was 21.8 µM; in [2], greater than 100 µM; in assay [3], 51.4 µM; in assay [4] it was 26.8 µM; in [5], 23.6 µM; in assay [6], 33.2 µM. Moreover, the results for the TGI in assay [7], in assay [10] and in [8] were 30.5 µM, 47.9 µM and 69.8 µM, respectively.
As for `CCCCN(CCCC)CCc1c(C)cc(C)c(CCN(CCCC)CCCC)c1O`, the GI50 in [1] is 1.97 µM; in assay [9], 2.16 µM; in assay [2], 2.39 µM; in [3], 3.76 µM; in [4], 3.28 µM; in assay [5], 3.06 µM. The GI50 in [7] is 3.63 µM; in assay [10], 2.24 µM; in assay [8] it was 3 µM. In addition, the TGI in [1] was 4.1 µM; in assay [9], 12.7 µM; in assay [2], 8.13 µM; in assay [3], greater than 100 µM; in [4], greater than 100 µM; in [5] it was 13 µM. The TGI in assay [7] is 88.1 µM; in assay [10], 7.13 µM; in [8], greater than 100 µM.
Consider `COC(=O)[C@]1(C)CCC[C@@]2(C)[C@@H]3C[C@@H]4[C@H]5C[C@@]3(CC[C@@H]21)C[C@@]45C`, for which the TGI in [1] was found to be 34.3 µM; in assay [2], 30.3 µM; in assay [3], 65.9 µM; in assay [4], 30.6 µM; in assay [5], 29.7 µM; in assay [6], 31.7 µM. Also, the TGI in assay [7] was determined as 32.1 µM; in [10] it was 27.7 µM; in [8] it was 28 µM.
Turning to `Cn1cc(C2=C(c3cn(C)c4cc(N)ccc34)C(=O)NC2=O)c2ccccc21`, the GI50 in assay [1] is 1.09 µM; in assay [9] it was 0.364 µM; in assay [2], 0.696 µM; in assay [3] it was 1.84 µM; in [4] it was 4.18 µM; in [5], 1.04 µM. The GI50 was 4.58 µM in [7], 2.92 µM in assay [10] and 3.09 µM in assay [8]. Also, the TGI was 5.76 µM in [1]; 4.02 µM in assay [9]; greater than 16.8 µM in assay [2]; 16.8 µM in assay [3]; greater than 25 µM in [4]; greater than 21.6 µM in assay [5]. Also, the TGI in assay [7] is 24.2 µM; in assay [10], 11.6 µM; in assay [8], greater than 25 µM.
